For one series, the target named is T1, 5-lipoxygenase (Glycine max, UniProt P08170).
T1 sequence (P08170 1-839): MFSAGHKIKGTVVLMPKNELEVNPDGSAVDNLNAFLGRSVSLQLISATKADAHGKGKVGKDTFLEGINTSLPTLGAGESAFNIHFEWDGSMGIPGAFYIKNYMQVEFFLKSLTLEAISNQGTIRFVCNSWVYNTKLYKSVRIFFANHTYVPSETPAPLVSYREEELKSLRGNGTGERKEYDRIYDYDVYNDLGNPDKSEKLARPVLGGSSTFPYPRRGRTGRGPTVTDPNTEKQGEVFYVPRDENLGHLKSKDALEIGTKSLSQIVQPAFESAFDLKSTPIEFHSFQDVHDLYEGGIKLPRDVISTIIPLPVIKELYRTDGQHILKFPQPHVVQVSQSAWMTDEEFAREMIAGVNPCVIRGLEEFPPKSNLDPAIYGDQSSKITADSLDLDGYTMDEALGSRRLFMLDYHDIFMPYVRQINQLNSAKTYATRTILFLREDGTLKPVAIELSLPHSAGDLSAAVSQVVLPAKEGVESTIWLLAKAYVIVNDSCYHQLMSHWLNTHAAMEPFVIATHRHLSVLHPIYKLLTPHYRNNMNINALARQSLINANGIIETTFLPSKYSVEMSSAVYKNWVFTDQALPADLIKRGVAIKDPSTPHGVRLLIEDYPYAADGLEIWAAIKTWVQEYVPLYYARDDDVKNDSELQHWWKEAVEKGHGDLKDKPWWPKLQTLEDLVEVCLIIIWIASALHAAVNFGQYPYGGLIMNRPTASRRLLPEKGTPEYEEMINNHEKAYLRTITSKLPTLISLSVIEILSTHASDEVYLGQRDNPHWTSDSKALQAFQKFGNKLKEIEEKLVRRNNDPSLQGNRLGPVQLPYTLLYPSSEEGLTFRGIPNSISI
Briefly: 5-Lipoxygenase inhibitory assay (linoleic acid, 234 nm). To be noted: for inhibition at 80 µM: read-out: 5-Lipoxygenase Inhibitory (% at 80 µmol/L). It counts as biochemical, Soybean. On the procedure:
The anti-inflammatory activity activities of the isolates was determined on Soybean lipoxygenase as described by Khlifi et al. with some modifications. 20 µL of each compound was mixed individually with 150 µL sodium phosphate buffer (pH 7.4) containing 20 µL of 5-lipoxygenase and 60 µL of linoleic acid (3.5 mM), yielding a final volume of 250 µL. […] The mixture was incubated at 25 °C for 10 min, and the absorbance was determined at 234 nm. The absorption change with the conversion of linoleic acid to 13-hydroperoxyoctadeca-9,11-dienoate (characterized by the appearance of the conjugated diene at 234 nm) was followed for 10 min at 25 °C. […] All measurements were performed in triplicate.

Series [1] in a line: MTT cytotoxicity assay, HCT-116. It is filed as cell-based. To be noted: human, HCT-116 colon carcinoma cells; HCT-116, MTT; read-out: Cytotoxic Activity (IC50 µmol/L) HCT-116. The procedure:
(§1) The human cancer cell line was used for cytotoxic assay: (HCT-116, IGROV-1 and OVCAR-3). The cells were grown in RPMI-1640 medium supplemented with 10% faetal calf serum (Gibco, Langley, OK, USA), air and 5% CO2. The isolate was added to a medium containing 1 × 10^6 cells/mL, 2 mM L-glutamine and 50 μg/mL gentamycin, and kept at 37 °C in a fully humidified atmosphere. After 18 h of incubation at 37 °C in 5% CO2 incubator, the tubes were centrifuged at 8000 g for 10 min. The supernatant was decanted, and the pellets taken and washed with 20 mM of phosphate buffered saline solution. Each pellet was dissolved in 100 μL (2 mg/mL) MTT solution in a tube, incubated at 22 °C for 4 h and centrifuged at 8000 g for 10 min. All the pellets were dissolved in 500 μL DMSO and read spectrophotometrically at 500 nm. IC50 was calculated by nonlinear regression analysis. Doxorubicin (HCT116) and tamoxifen (IGROV-1 and OVCAR-3) were used as positive control.
A general note: Tetrazolium assays rely on reduction of a dye to a coloured formazan, in cell work by metabolically active cells.

Series [2] can be described thus: MTT cytotoxicity assay, IGROV-1. It counts as cell-based. To be noted: human, IGROV-1 ovary cells; IGROV-1, MTT; read-out: Cytotoxic Activity (IC50 µmol/L) IGROV-1. The procedure: as §1
Series [3] can be described thus: MTT cytotoxicity assay, OVCAR-3. It is filed as cell-based. To be noted: human, OVCAR-3 ovary cells; OVCAR-3, MTT; read-out: Cytotoxic Activity (IC50 µmol/L) OVCAR-3. On the procedure: as §1
Series [4] is described as follows: DPPH free radical scavenging test. To be noted: mean ± SD of three measurements; read-out: IC50 (µmol/L) DPPH Assay. On the procedure:
The antioxidant activity of compounds was assessed according to their DPPH scavenging ability as described by Khlifi et al., [33] with some modifications. Reaction mixtures, containing 0.1 mL of the relevant compounds solution in methanol, with concentrations ranging 3 mg/mL and 0.1 mL of a 0.2 mM DPPH methanolic solution, were added to 96-well microtiter plates and incubated at 25 °C for 30 min. Absorbances were measured at 520 nm, the wavelength of maximum absorbance of DPPH, were recorded as A(sample). A blank experiment was also carried out applying the same procedure to a solution without the test material and the absorbance was recorded as A(blank).
Ascorbic acid was used as a standard. All measurements were performed in triplicate.

The nature of series [5]: ABTS radical-scavenging test. To be noted: mean ± SD of three measurements; read-out: IC50 (µmol/L) ABTS+ Assay. On the procedure:
The radical scavenging capacity of the samples for the ABTS (2,2′-azinobis-3-ethylbenzothiazoline-6-sulphonate) radical cation was determined as described by Khlifi et al., [33] with some modifications. ABTS was generated by mixing a 7 mM of ABTS at pH 7.4 (5 mM NaH2PO4, 5 mM Na2HPO4 and 154 mM NaCl) with 2.5 mM potassium persulfate (final concentration) followed by storage in the dark at room temperature for 16 h before use. The mixture was diluted with ethanol to give an absorbance of 0.70 ± 0.02 units at 734 nm using spectrophotometer. For each sample, diluted solution (20 μL) was allowed to react with fresh ABTS solution (180 μL), and then the absorbance was measured 6 min after initial mixing. […] The capacity of free radical scavenging IC50 was determined using the same previously used equation for the DPPH method. All measurements were performed in triplicate.

The conditions of series [6]: previously tested, cited from earlier work.
The test system of series [7] is human promyelocytic leukemia cell HL-60. On the set-up: method as in PMID 15387667. To be noted: read-out: IC50 against HL-60; cited from earlier work.
The test system of series [8] is human fibrosarcoma cell line HT-1080. Further details: method as in PMID 15387667. To be noted: read-out: IC50 against HT-1080; cited from earlier work.
In series [9] the test system is colon cancer cell line LoVo. Further details: method as in PMID 15387667. To be noted: read-out: IC50 against LoVo; cited from earlier work.
The test system of another series is LoVo/Doxo. On the set-up: method as in PMID 15387667. To be noted: read-out: IC50 against LoVo/Doxo; cited from earlier work.
Details of series [10]: method as in doi:10.1016/j.foodchem.2011.09.005. To be noted: previously tested; read-out: Fe3+ reducing power ability IC50; cited from earlier work.
Details of series [11]: method as in doi:10.1016/j.foodchem.2011.09.005. To be noted: previously tested; read-out: hydrogen peroxide (H2O2) inhibition IC50; cited from earlier work.
The subject of series [12] is 5-lipoxygenase isolated from rat basophilic leukaemia cells (RBL-1). On the set-up: method as in doi:10.1016/j.foodchem.2009.09.088. To be noted: at 20 µmol/L; cited from earlier work.
For a further series, the system named is liver cell line Hep-G2. On the set-up: method as in PMID 18481014. To be noted: read-out: IC50 against Hep-G2; cited from earlier work.
[13] abbreviates: read-out: DPPH radical scavenging activity IC50.

Several values for one entry are separate records, joined by “and”; a condition that tells them apart may be missing. Equal entries are not always repeated. Where two headings read alike, the source gives them in different places. A value given as a limit tells only on which side of the number the result lay.

As for `C/C(O[C@@H]1O[C@H](CO)[C@@H](O)[C@H](O)[C@H]1O)=C1/C=CC(=O)O1` [Compound 1, (E)-5-Ethylidenefuran-2(5H)-one-5-O-β-D-glucopyranoside], the inhibition at 80 µM on 5-lipoxygenase stood at 16.9 ± 1.2%. Further, the IC50 at 18 h in [1], in [2] and in series [3] was over 100 µmol/L throughout.
For the compound `C/C(=C\C(=O)O)CO` [Compound 2, 4-Hydroxy-3-methylbut-2-enoic acid], the “5-Lipoxygenase Inhibitory (% at 80 µmol/L)” value at 5-lipoxygenase is “did not exhibit activities”. In addition, the inhibition at 80 µM on 5-lipoxygenase amounted to 0%. Besides, the IC50 at 18 h in [1], in series [2] and in [3] was over 100 µmol/L throughout.
Regarding `CC1=CC(=O)C2CC1(O[C@@H]1O[C@H](CO)[C@@H](O)[C@H](O)[C@H]1O)C2(C)C` (stereo partly drawn) [Compound 3, Verbenone-5-O-β-D-glucopyranoside], the inhibition at 80 µM on 5-lipoxygenase stood at 12.4 ± 0.8%. Also, the IC50 at 18 h in [1], in series [2] and in [3] was over 100 µmol/L each time.
With `O=C(/C=C/c1ccc(O)c(O)c1)O[C@@H]1C[C@](O)(C(=O)O)C[C@@H](O)[C@H]1O` [Compound 4, 5-O-Caffeoylquinic acid], on 5-lipoxygenase, the inhibition at 80 µM turned out to be 17.1 ± 1.1%. For the same compound, the IC50 at 18 h in [1], in series [2] and in [3] was over 100 µmol/L in each case.
In the case of `COC(=O)/C=C/c1ccc(O)c(O)c1` [Compound 5, Methyl caffeate], the IC50 in [4] was 39.2 ± 0.5 µmol/L; in series [5], 40.8 ± 0.4 µmol/L; in series [6] (setting [13]) it was 14 ± 2.3 µM; in [7] it was 7.5 ± 1.6 µM; in series [8] it was 11.1 ± 3.5 µM; in series [9], 5.8 ± 1.1 µM. In the series with LoVo/Doxo, the IC50 is at least 40 µM. Besides, the “5-Lipoxygenase Inhibitory (% at 80 µmol/L)” value on 5-lipoxygenase is given as “did not exhibit activities”. The inhibition at 80 µM at 5-lipoxygenase was 0%. The IC50 at 18 h in [1] is 22.5 ± 2.4 µmol/L; in [2], 17.8 ± 1.1 µmol/L; in series [3] it was 25 ± 1.1 µmol/L.
In the case of `COC(=O)[C@]1(O)C[C@@H](OC(=O)/C=C/c2ccc(O)c(O)c2)[C@@H](O)[C@H](OC(=O)/C=C/c2ccc(O)c(O)c2)C1` [Compound 6, Methyl 3,5-O-Dicaffeoylquinate], the IC50 in [4] is 26.6 ± 1.3 µmol/L; in series [5], 20 ± 0.3 µmol/L; on 5-lipoxygenase, 5.3 µM and 5.28 µM; in series [6] (read-out: DPPH IC50) it was 10.3 ± 0.24 µM; in [10] it was 270 ± 7.37 µM; in [11] it was 316.4 ± 2.86 µM. For the same compound, the IC50 in the series on liver cell line Hep-G2 is 72.7 ± 6.2 µM. The IC50 at 18 h in [1], in series [2] and in series [3] was over 100 µmol/L throughout. The “percent inhibition of 5-lipoxygenase (RBL-1)” value in series [12] is 15.1%.
`O=C(/C=C/c1ccc(O)c(O)c1)O[C@@H]1C[C@](O)(C(=O)O)C[C@@H](OC(=O)/C=C/c2ccc(O)c(O)c2)[C@H]1O` [Compound 7, 3,5-O-Dicaffeoylquinic acid]: the IC50 in series [4] is 18 ± 0.5 µmol/L; in series [5], 19.7 ± 0.7 µmol/L; at 5-lipoxygenase it was 10 ± 0.2 µM; in [6] (setting [13]) it was 18.2 ± 0.5 µM. In addition, the IC50 at 18 h in [1], in series [2] and in series [3] was over 100 µmol/L each time. For the same compound, the “percent inhibition of 5-lipoxygenase (RBL-1)” value in series [12] was “inactive”.
`CC(C)(O)[C@@H]1Cc2cc3ccc(=O)oc3cc2O1` [Compound 9, (−)-Marmesin]: at 5-lipoxygenase, the “5-Lipoxygenase Inhibitory (% at 80 µmol/L)” value is listed as “did not exhibit activities”. The inhibition at 80 µM on 5-lipoxygenase was determined as 0%. In addition, the IC50 at 18 h in series [1] was 50 ± 4.9 µmol/L; in [2], over 100 µmol/L; in series [3], over 100 µmol/L.
As to `CC(C)=CCOc1c2ccoc2cc2oc(=O)ccc12` [Compound 10, Isoimperatorin], the “5-Lipoxygenase Inhibitory (% at 80 µmol/L)” value at 5-lipoxygenase is recorded as “did not exhibit activities”. Also, on 5-lipoxygenase, the inhibition at 80 µM is 0%. Further, the IC50 at 18 h in series [1], in series [2] and in series [3] was over 100 µmol/L in each case.
Regarding `Cc1ccc(C)c(C=O)c1C` [Compound 11, 2,3,6-Trimethylbenzaldehyde], the “5-Lipoxygenase Inhibitory (% at 80 µmol/L)” value on 5-lipoxygenase was “did not exhibit activities”. The inhibition at 80 µM on 5-lipoxygenase was determined as 0%. For the same compound, the IC50 at 18 h in series [1], in series [2] and in [3] was over 100 µmol/L throughout.
As for `COc1cccc2c1C(=O)c1c(O)c3c(c(O)c1C2=O)C[C@@](O)(C(=O)CO)C[C@@H]3O[C@H]1C[C@H](N)[C@H](O)[C@H](C)O1` [Doxorubicin, reference compound], the IC50 at 18 h in [1] turned out to be 0.18 ± 0.01 µmol/L.
In the case of `CC/C(=C(\c1ccccc1)c1ccc(OCCN(C)C)cc1)c1ccccc1` [Tamoxifen, tamoxifen, reference compound], the IC50 at 18 h came out at 2 ± 0.1 µmol/L in [2] and 1.3 ± 0.1 µmol/L in series [3].
For `O=C1O[C@H]([C@@H](O)CO)C(O)=C1O` [Vitamin C, ascorbic acid, reference compound], the IC50 in series [4] was 25 ± 1.1 µmol/L; in series [5], 23.3 ± 0.1 µmol/L.

These data come from PMC6271101, “Antioxidant, 5-Lipoxygenase Inhibitory and Cytotoxic Activities of Compounds Isolated from the Ferula lutea Flowers” (Molecules, 2014).
